Values joined by “and” are separate entries in the source; they are usually repeats but may differ in a detail not shown here. Equal values may be shown once. Read-outs that look alike come from different tables or passages of the source.
How the values were obtained:
[1] = system: Rhinovirus (HRV-A60), Strain: 2268-CV37; assay: Antiviral activity of LTX-7 against Rhinovirus: 1 hour incubation, filtration, TCID50 endpoint dilution on HeLaM cells; format: cell-based, Human Rhinovirus 60; settings: for % Reduction: as compared to the PBS control; for % Reduction / Log decrease / Rounded %: contact time 1 hour, 1% LTX-7 or 0.25% SDS; for TCID50/ml ± SEM: average virus titre recovered, contact time 1 hour at RT, 1% LTX-7 (w/v) in PBS or 0.25% SDS in PBS; for Log decrease: decrease in infectivity as compared to the PBS control; for Rounded %: rounded % reduction as compared to the PBS control
Method: The Rhinovirus used was from BEI Resources: Rhinovirus (HRV-A60), Strain: 2268-CV37 (BEI Resources Catalogue Number NR-51447).
To test whether LTX-7 has antiviral activity against Rhinovirus, 5×10^5 infectious units of Rhinovirus (40 μl) were incubated with four volumes of 1% LTX-7 (w/v) dissolved in PBS (160 μl) or a PBS (Phosphate-buffered saline) negative control. As a positive control, a buffer containing 0.25% SDS (Sodium dodecyl sulphate) in PBS was tested in parallel. Each sample and the PBS control were tested in triplicates.
(§1) After 1 hour at room temperature (RT), the incubation was stopped by adding an excess of cold assay media (5 ml), and the formulation was physically separated from the virus through a filter (Sartorius VivaSpin 6, 100,000 MWCO, PES (Sartorius, VS0642)) to reduce cytotoxicity on the assay cells. The assay media was DMEM (Gibco 61965-026) supplemented with 2% FBS (Gibco 10500-064), 20 mM Hepes (Gibco 15630-056) and 1× p/s (Gibco 15070063).
The starting solution for the serial dilution (i.e. the neat (or undiluted) solution or 10^0 solution) was obtained by re-suspending the virus that was separated via the filtration step in 1 ml of assay media. […] Appropriate controls were also performed.

HeLaM cells [2] = settings: dilution at which cytotoxicity on HeLaM cells was observed, without virus, after filtration, 1% LTX-7 (w/v) in PBS or 0.25% SDS
Method: A parallel test where the same procedure was carried out in the absence of virus was included to determine any residual cytotoxic effect of LTX-7 on the assay cells.

Rhinovirus 60, 2268-CV37 [3] = assay: Antiviral activity of 3% LTX-109 against Rhinovirus: 1 hour incubation, dilution in media, TCID50 endpoint dilution on HeLa cells; format: cell-based, Human Rhinovirus 60; settings: for Log decrease: decrease in infectivity as compared to the PBS control; for Log decrease / Percentage: 1 hour; for Log decrease / Log / Percentage: 3% LTX-109 or 0.25% SDS; for Log: log of recovered virus titre after 1 hour incubation; for Percentage: reduction in infectivity as compared to the PBS control
Method: (§2) The Rhinovirus used was from BEI Resources: Rhinovirus 60, 2268-CV37 (Catalogue No. NR-51447).
(§3) To test whether 3% LTX-109 (w/v) has antiviral activity against Rhinovirus, 9×10^5 infectious units of Rhinovirus (40 μl) were incubated with four volumes of 3% LTX-109 dissolved in PBS (160 μl), alongside a PBS (Phosphate-buffered saline) control and a 0.25% SDS (Sodium dodecyl sulphate) positive control. The treatments were performed in triplicate.
After 1 hour, the incubation was stopped by adding 50 μl of mixture to 5 ml of media. The assay media was DMEM (Gibco 61965-026) supplemented with 2% FBS (Gibco 10500-064), 20 mM Hepes (Gibco 15630-056) and 1× p/s (Gibco 15070063).
(§4) Appropriate controls were also performed.

Rhinovirus 60, 2268-CV37 [4] = assay: Antiviral activity of 1% LTX-109 against Rhinovirus: 1 hour incubation, filtration, TCID50 endpoint dilution on HeLa cells; format: cell-based, Human Rhinovirus 60; settings: for TCID50/ml ± SEM: average virus titre recovered after 1 hour incubation, 1% LTX-109 (w/v) in PBS or 0.25% SDS, triplicate; for Log decrease: decrease in infectivity as compared to the PBS control; for Log decrease / Percentage: 1 hour; for Log decrease / Log / Percentage: 1% LTX-109 or 0.25% SDS; for Log: log of recovered virus titre after 1 hour incubation; for Percentage: reduction in infectivity as compared to the PBS control
Method: as §2
as §3, with “1%” for “3%”, “2.24×10^5” for “9×10^5”
After 1 hour, the incubation was stopped by adding an excess of media, and the liquid was filtered through a filter (Sartorius VivaSpin 6) to separate the virus in order to reduce cytotoxicity on the assay cells. The assay media was DMEM (Gibco 61965-026) supplemented with 2% FBS (Gibco 10500-064), 20 mM Hepes (Gibco 15630-056) and 1×p/s (Gibco 15070063).
as §4

HeLa cells [5] = settings: dilution at which cytotoxicity on HeLa cells was observed, without virus, after dilution, 3% LTX-109 (w/v) in PBS or 0.25% SDS
Method: A parallel test where the same procedure was carried out in the absence of virus was included to determine any residual cytotoxic effect of the formulation on the assay cells.

HeLaM cells [6] = assay: Parallel test without virus: residual cytotoxic effect of LTX-109 on the assay cells (Example 4); settings: dilution at which cytotoxicity on HeLaM cells was observed, after filtration and re-suspension, 1% LTX-109 or 2.5% glutaraldehyde in PBS
Method: A parallel test where the same procedure was carried out in the absence of virus was included to determine any residual cytotoxic effect of LTX-109 on the assay cells.

[7] = system: Human Rhinovirus 14, strain 1059; assay: Antiviral (virucidal) activity of 1% LTX-109 against Human Rhinovirus 14: 1 hour incubation, filtration, TCID50 on HeLaM cells; format: cell-based; settings: for TCID50/ml ± SEM: average virus titre recovered, contact time 1 hour at RT, 1% LTX-109 (triplicate) or 2.5% glutaraldehyde in PBS (single replicate); for Log decrease: decrease in infectivity as compared to the PBS control; for Log decrease / % Reduction: contact time 1 hour, 1% LTX-109 or 2.5% glutaraldehyde; for % Reduction: reduction in Rhinovirus 14 infectivity as compared to the PBS control
Method: The virus used was from ATCC: Human Rhinovirus 14, strain 1059 (ATCC VR-284, lot number 70049530).
To test whether 1% LTX-109 has virucidal activity against Human Rhinovirus 14, 4×10^7 infectious units of Human Rhinovirus 14 in 40 μl were incubated with four volumes (160 μl) of 1% LTX-109 or a PBS negative control. As a positive control, a buffer containing 2.5% glutaraldehyde in PBS was tested in parallel. Both LTX-109 and negative control were tested in triplicates. The positive control was tested in a single replicate.
as §1, with “PES)” for “PES (Sartorius, VS0642))”, “10566016)” for “61965-026)”, “10500064),” for “10500-064),”, “HEPES” for “Hepes”, “15630056)” for “15630-056)”, “PenStrep” for “p/s”
Concentrated virus was re-suspended in 1 ml of assay media and infectious virus was quantified through a serial dilution (10^−1 to 10^−8) on a monolayer of HeLaM cells plated the day before at 8,000 cells/100 μl/well. […] Specifically, on a 96 well plate, 225 μl of media were placed in each well of 4 columns (32 wells in total). In the 4 wells of the top row (row A), 25 μl of re-suspended virus was added and mixed. With a multichannel pipette, 25 μl of media was then taken from the 4 wells in row A to the next 4 wells in row B, and then from row B to row C, and so on until row H, creating a serial dilution (10^−1 to 10^−8). 200 μl from each well was then added to separate wells containing a monolayer of HeLa M cells. Appropriate controls were also performed.

HeLa cells [8] = settings: dilution at which cytotoxicity on HeLa cells was observed, without virus, after filtration, 1% LTX-109 (w/v) in PBS or 0.25% SDS
Method: Infectious virus was quantified through a serial dilution of the filtrate (a series of ten-fold dilutions) on monolayers of HeLa cells in microtitre plates (HeLa cells are human cells capable of displaying a cytopathic effect (CPE) upon viral infection). For each dilution of the virus in the dilution series, eight wells of the microtitre plate were tested (i.e. each dilution was applied to eight separate wells, each well containing a HeLa cell monolayer). Appropriate controls were also performed. […] The TCID50 (TCID50/ml) assay (Tissue Culture Infectious Dose 50 assay) is a type of endpoint dilution assay that is well known in the art and routinely used to quantitatively measure virus titres. TCID50/ml provides a measure of infectious units of virus/ml. “/ml” refers to /ml of the starting solution (i.e. neat/undiluted solution) mentioned above. A parallel test where the same procedure was carried out in the absence of virus was included to determine any residual cytotoxic effect of the formulation on the assay cells.

[9] = listed as POSITIVE CONTROL (SDS), sulphate

| SMILES | % Reduction [1] | Log decrease [1] | Log decrease (Rhinovirus 60, 2268-CV37 [3]) | Log (Rhinovirus 60, 2268-CV37 [3]) | Percentage (Rhinovirus 60, 2268-CV37 [3]) | TCID50/ml ± SEM (Rhinovirus 60, 2268-CV37 [4]) | Log decrease (Rhinovirus 60, 2268-CV37 [4]) | Log (Rhinovirus 60, 2268-CV37 [4]) | Percentage (Rhinovirus 60, 2268-CV37 [4]) | Cytotoxicity (HeLa cells [5]) | Cytotoxicity (HeLaM cells [6]) | TCID50/ml ± SEM [7] | Log decrease [7] | % Reduction [7] | Cytotoxicity (HeLa cells [8]) | other results |
| --- | --- | --- | --- | --- | --- | --- | --- | --- | --- | --- | --- | --- | --- | --- | --- | --- |
| N=C(N)NCCCC(N)C(=O)NC(Cc1ccc(-c2ccc3ccccc3c2)cc1)C(=O)NC(CCCNC(=N)N)C(=O)NCCc1ccccc1 (stereo not drawn) [LTX-7, Arg-Phe(4-(2-Naphthyl))-Arg-NH—CH2—CH2-Ph] | 95.791% | 1.33 logs | – | – | – | – | – | – | – | – | – | – | – | – | – | TCID50/ml ± SEM [1]: 3.86E+03 TCID50/ml and 3.86E+03 ± 1.14E+03 TCID50/ml; Cytotoxicity (HeLaM cells [2]): observed (only) with the neat application and only cytotoxic before any serial dilutions are performed and Neat |
| CC(C)(C)c1cc(C(C)(C)C)c2[nH]c(C(C)(C)C)c(CC(NC(=O)C(N)CCCNC(=N)N)C(=O)NC(CCCNC(=N)N)C(=O)NCCc3ccccc3)c2c1 (stereo not drawn) [LTX-109] | – | – | 1.9 logs | 2.3 | 98.87% | 4.8E+03 TCID50/ml and 4.80E+03 ± 8.21E+02 TCID50/ml | 1.9 logs | 3.7 | 98.89% | only cytotoxic before any serial dilutions are performed | 10^−1 | 1.80E+06 TCID50/ml | 1.05 logs | 91.2% | only cytotoxic before any serial dilutions are performed | Cytotoxicity (HeLa cells [5]; listed as 3% LTX-109): Neat; Cytotoxicity (HeLa cells [5]; listed as 3% formulation): observed (only) with the neat application; TCID50/ml ± SEM ([7]; listed as 1% LTX-109): 1.80E+06 (±3.08 ± 05) TCID50/ml; % Reduction ([7]; listed as 1% LTX-109): 91.2% and 91.17%; Cytotoxicity (HeLa cells [8]; listed as 1% LTX-109): observed (only) with the neat application and Neat |
| O=CCCCC=O [Positive Control, glutaraldehyde, reference compound] | – | – | – | – | – | – | – | – | – | – | Neat | 3.75E+01 TCID50/ml | 5.74 logs | 99.9998% | – | % Reduction ([7]; listed as 2.5% glutaraldehyde in PBS): ~99.9% |
| CCCCCCCCCCCCOS(=O)(=O)[O-].[Na+] [SDS, Sodium dodecyl sulphate, reference compound] | 99.983% | 3.67 logs | 3.0 logs | 1.2 | 99.91% | 1.00E+02 TCID50/ml | 3.6 logs | 2.0 | 99.98% | Neat | – | – | – | – | Neat | TCID50/ml ± SEM (Rhinovirus 60, 2268-CV37 [3]; average virus titre recovered after 1 hour incubation, 3% LTX-109 (w/v) in PBS or 0.25% SDS, triplicate): 1.58E+01 TCID50/ml; TCID50/ml ± SEM [1, 9]: 1.58E+01 (SEM ND) TCID50/ml; TCID50/ml ± SEM ([1]; sulphate): 1.58E+01 TCID50/ml; Rounded % [1, 9]: 99.9%; Rounded % ([1]; sulphate): ~99.9%; Cytotoxicity (HeLaM cells [2]; [9]): Neat; Cytotoxicity (HeLaM cells [2]; sulphate): observed (only) with the neat application |
